{"source": "patent US20220296618A1", "about": "“ANTI-INFLAMMATORY COMPOUNDS FOR USE IN THE TREATMENT OF DERMAL DISORDERS” (COUNCIL OF SCIENTIFIC & INDUSTRIAL RESEARCH, priority 2019, published 2022)", "key": {"[1]": {"tested_on": "surgical incisional wound in diabetic (db/db) mice", "assay": "Incisional wound healing in diabetic (db/db) mice, with or without SIRT1 inhibitor EX-527", "type": "in vivo", "details": "Group 12, 0.625% in vehicle, topical once daily for 7 days", "text": "In this study, mice of db/db strain (age: 12 weeks) were used. The animals were divided into four groups: • Group 11: Mice control treated with the vehicle alone. • Group 12 Mice treated with Compound 1 (0.625%) prepared in the vehicle. • Group 13 Mice treated with Compound 1 (0.625%) and EX-527 (0.025%) in the • vehicle. • Group 14: Mice treated with EX-527 (0.025%) in the vehicle.\nPara vertebral straight incisions of 2 cm length and 1 mm depth each were made through the entire thickness of the skin, on either side of the vertebral column with the help of a sharp scalpel. After complete haemostasis, the wound was closed by means of interrupted sutures placed at equidistance points about 1 cm apart (See FIG. 8) All the groups were treated once daily for 7 days with the respective test and control preparations. Images of the wound area were taken on each day of the study by photographs and Doppler imaging. The wound area was measured using a transparent tracing sheet before and during the treatment to measure the wound closure at every 4 day interval."}, "[2]": {"tested_on": "surgical incision wound on rabbit skin", "assay": "Incisional wound healing in rabbit, topical cream", "type": "in vivo, New Zealand rabbits", "details": "2.5% in vehicle", "text": "In this study, New Zealand rabbits weighing between 2.0-2.5 kg body weight were used and divided into two groups;\nControl Group: Treated with the vehicle alone.\nTest Group: Treated with Compound 1 (2.5%) prepared in the vehicle.\nPara vertebral straight incisions of 2 cm length each were made through the entire thickness of the skin on either side of the vertebral column with the help of a sharp scalpel. After complete haemostasis, the wound was closed by means of interrupted sutures placed at equidistance points about 1 cm apart (See FIG. 6). Animals were treated once daily from day 0 to day 14 post-wounding day. Images were taken daily during the study period. Sutures were removed on day 7 and observed for wound closure."}, "IL-23": {"tested_on": "IL-23", "assay": "IL-23 level in skin homogenate by ELISA, IMQ-induced psoriasis model", "type": "in vivo, Balb/c mice", "details": "day 7, ELISA", "description": "(§1) The effect of topical administration of Compound 1 for the treatment of psoriasis was tested in this animal study. In this study, typical features of psoriasis, namely erythema, scaling, and skin thickness, were induced by the application of 5% w/w imiquimod (IMQ) cream on the dorsal skin of Balb/c mice over a period of 6 consecutive days. Animals that developed psoriasis-like symptoms were used for studying the efficacy of the Compound 1 prepared in a vehicle (as described above). In this study, male Balb/c mice (aged 6 to 8 weeks) were used. The animals were divided into 8 groups consisting of 10 animals in each group as follows:\nAn IMQ-induced psoriasis model reproduces biochemical and histopathological parameters characteristic of human psoriatic lesions. Topical application of the IMQ cream increased levels of cytokines including IL-23 and IL-17 in the treated skin tissues. The animals were euthanized on day 7. Spleen, liver and skin tissues were collected from all the animals Spleen and liver tissues were weighed. IL-17 and IL-23 levels were measured by ELISA using a commercially available kit. The skin homogenates obtained from mice of different groups were analyzed using ELISA for quantification of IL-17 and IL-23 levels as the selected interleukins are the typical inflammatory markers of psoriasis."}, "mice skin tissues": {"tested_on": "mice skin tissues", "assay": "Tensile strength of skin tissues on day 8 after treatment for 7 days", "type": "in vivo", "description": "Method: Fresh mice skin was treated once daily and stretched between the two ends of the tensile machine with a load of 100 kg with a stretching speed of 5 mm/min. (FIG. 9)."}, "[3]": {"tested_on": "IMQ-induced psoriasis in Balb/c mice", "assay": "Histopathology (H&E staining) of skin, IMQ-induced psoriasis model", "type": "in vivo", "details": "0.625% preparation; comparable to clobetasol propionate cream", "description": "As a part of the efficacy study, a histopathology study was performed to study the morphological observations of the skin of mice representative of the different treatment groups. At the end of experiment, skin samples of mice from each group were fixed in 4% paraformaldehyde and embedded in paraffin. From each paraffin block, 4 μm thick sections were made and mounted on the glass slides. The sections were stained by haematoxylin and eosin and images were taken and evaluated."}, "[4]": {"tested_on": "wound on the dorsal skin of diabetic (db/db) mice", "assay": "Diabetic wound healing (1 cm^2 punch biopsy wound) in db/db mice, topical cream", "type": "in vivo", "details": "for Wound healing observed animals in a group on day 10 / % of Wound healing: topical once daily; for Wound healing observed animals in a group on day 10: 5 animals in the group; for % of Wound healing: day 10", "text": "Method: In this study, mice of db/db strain (age: 13-14 weeks) were used as this strain is more analogous to diabetic wound healing in humans. A 1 cm^2 wound was made using a punch biopsy on the dorsal side of the db/db mice under local anesthetic conditions. The animals were divided into 5 groups with 5 animals in each group as follows: • Group 1 (n=5): treated with vehicle alone (Diabetic Control Group). • Group 2 (n=5) treated with Compound 2 (2.5%) prepared in the vehicle. • Group 3 (n=5): treated with Compound 1 (0.625%) prepared in the vehicle. • Group 4 (n=5) treated with Compound 1 (1.25%) prepared in the vehicle. • Group 5 (n=5) treated with Compound 1 (2.5%) prepared in the vehicle. Three concentrations of Compound 1, i.e. 0.625%, 1.25%, and 2.5%, were tested for this study. The topical preparations were applied on the wound once daily for 12 days. Images of the wound area were visualized, and measurements of the wound area were recorded on each day of the study."}, "[5]": {"tested_on": "wound on the dorsal skin of non-diabetic C57 mice", "assay": "Wound healing (1 cm^2 punch biopsy wound) in non-diabetic C57BL/6j mice, topical cream", "type": "in vivo", "details": "topical once daily for 12 days; for Wound healing observed animals in a group: 5 animals in the group", "text": "Method: In this study, C57BL/6j mice strain (age: 12 weeks) were used for studying the wound healing process. A 1 cm^2 wound was made using a punch biopsy on the dorsal side of the C57 mice. The animals were divided into 5 groups consisting of 5 animals in each group as follows: • Group 6 (n=5): treated with vehicle alone (Non-Diabetic Control Group). • Group 7 (n=5) treated with Compound 2 (2.5%) prepared in the vehicle. • Group 8 (n=5): treated with Compound 1 (0.625%) prepared in the vehicle. • Group 9 (n=5) treated with Compound 1 (1.25%) prepared in the vehicle. • Group 10 (n=5) treated with Compound 1 (2.5%) prepared in the vehicle. Three concentrations of Compound 1, i.e. 0.625%, 1.25%, and 2.5%, prepared in the vehicle were tested in this study. The topical preparations were applied on the wound once daily for 12 days starting 12 hours after the wound was created. Images of the wound area were visualized, and measurements of area were recorded on each day of the study."}, "[6]": {"tested_on": "IMQ-induced psoriasis in Balb/c mice", "assay": "IMQ-induced psoriasis in Balb/c mice, PASI scoring", "type": "in vivo", "details": "topical 12 h after IMQ, day 1 to 6", "description": "as §1\nAnimals in this group were topically treated with 62.5 mg of commercially available imiquimod cream (5%) on the shaved back for 6 consecutive days (day 1 to 6 of study) at a specific time in the morning. This negative control group represents the typical psoriatic model induced by imiquimod 5% (IMQ). […]\nPsoriatic area and severity index (PASI) scoring was analyzed to determine the efficacy of compositions containing a Compound 1 with appropriate controls as part of the study. The severity of inflammation of the skin was evaluated by an objective scoring system based on the clinical PASI scores. Erythema (0-4) and scaling (0-4) were scored independently where, 0-none; 1-slight; 2-moderate; 3-marked; 4-very marked. […]"}, "[7]": {"tested_on": "hepatic enzyme markers ALT and AST", "details": "intraperitoneally prior to treatment with t-butyl hydroperoxide; cited from earlier work"}}, "data": [{"smiles": "O=c1cc(CCCCCCCC[P+](c2ccccc2)(c2ccccc2)c2ccccc2)c2cc(O)c(O)cc2o1.[Br-]", "note": "[Compound 1]", "values": [{"measurement": "Time to complete healing of the incisional wound", "setting": "[1]", "result": "≤ 7", "unit": "days"}, {"measurement": "Time of faster surgical wound healing versus Control Group", "setting": "[2]; topical once daily day 0 to day 14", "result": "≤ 8", "unit": "days"}, {"measurement": "Surgical scar", "setting": "[2]; topical once daily, compared to Control Group", "result": "No surgical scar was observed"}, {"measurement": "IL-23 levels in skin tissue compared to the negative control", "setting": "IL-23; 0.313% in vehicle", "result": "decline in IL-23 levels"}, {"measurement": "IL-23 levels in skin tissue compared to the negative control", "setting": "IL-23; 0.625% in vehicle", "result": "decline in IL-23 levels"}, {"measurement": "Tensile strength (N)", "setting": "mice skin tissues; 0.625%", "result": "55.33 ± 1.7", "unit": "N"}, {"measurement": "Histopathological amelioration of IMQ-induced psoriasis (skin and ear)", "setting": "[3]", "result": "ameliorated more"}, {"measurement": "Wound healing observed animals in a group on day 10", "setting": "[4]; 0.625% in vehicle cream", "result": 5}, {"measurement": "% of Wound healing", "setting": "[4]; 0.625% in vehicle cream", "result": 100, "unit": "%"}, {"measurement": "Wound healing observed animals in a group on day 10", "setting": "[4]; 1.25% in vehicle cream", "result": 4}, {"measurement": "% of Wound healing", "setting": "[4]; 1.25% in vehicle cream", "result": 90, "unit": "%"}, {"measurement": "Wound healing observed animals in a group on day 10", "setting": "[4]; 2.5% in vehicle cream", "result": 4}, {"measurement": "% of Wound healing", "setting": "[4]; 2.5% in vehicle cream", "result": 90, "unit": "%"}, {"measurement": "Day of complete closure of the wound", "setting": "[4]; Groups 3-5, 0.625%, 1.25% and 2.5% in vehicle, topical", "result": "≤ 10", "unit": "days"}, {"measurement": "% of Wound healing", "setting": "[5]; 0.625% in vehicle cream", "result": 90, "unit": "%"}, {"measurement": "Wound healing observed animals in a group", "setting": "[5]; 0.625% in vehicle cream", "result": 4}, {"measurement": "% of Wound healing", "setting": "[5]; 1.25% in vehicle cream", "result": 90, "unit": "%"}, {"measurement": "Wound healing observed animals in a group", "setting": "[5]; 1.25% in vehicle cream", "result": 4}, {"measurement": "% of Wound healing", "setting": "[5]; 2.5% in vehicle cream", "result": 100, "unit": "%"}, {"measurement": "Wound healing observed animals in a group", "setting": "[5]; 2.5% in vehicle cream", "result": 5}, {"measurement": "PASI scores over the treatment period", "setting": "[6]; 0.313% in vehicle", "result": "declines in PASI scores"}, {"measurement": "PASI scores over the treatment period", "setting": "[6]; 0.625% in vehicle", "result": "better declines in PASI scores"}]}, {"smiles": "NC(=O)C1CCCc2c1[nH]c1ccc(Cl)cc21", "note": "(centres unmarked) [EX527, 6-chloro-2,3,4,9-tetrahydro-1H-carbazole-1-carboxamide, reference compound]", "values": [{"measurement": "Tensile strength (N)", "setting": "mice skin tissues; 0.025%", "result": "6.03 ± 2.51", "unit": "N"}]}, {"smiles": "O=c1ccc2cc(O)c(O)cc2o1", "note": "[Compound 2, 6,7-dihydroxycoumarin, reference compound]", "values": [{"measurement": "Serum levels of hepatic enzyme markers ALT and AST", "setting": "[7]", "result": "lower serum levels"}, {"measurement": "Wound healing observed animals in a group on day 10", "setting": "[4]; 2.5% in vehicle cream", "result": 0}, {"measurement": "% of Wound healing", "setting": "[4]; 2.5% in vehicle cream", "result": 0, "unit": "%"}, {"measurement": "Day of wound closure", "setting": "[4]; Group 2, 2.5% in vehicle, topical", "result": "≤ 26", "unit": "days"}, {"measurement": "% of Wound healing", "setting": "[5]; 2.5% in vehicle cream", "result": 90, "unit": "%"}, {"measurement": "Wound healing observed animals in a group", "setting": "[5]; 2.5% in vehicle cream", "result": 4}]}]}
